This passage reports MIC results from DBAASP.

≈ marks a conversion by molar mass, not a printed value.

Some test systems named below: Lactococcus garvieae; Streptococcus iniae; Vibrio parahaemolyticus; Vibrio harveyi; Vibrio alginolyticus; Staphylococcus aureus.
Holding throughout (assay): ≥ marks a high value that may be exact or a test limit, other limits are often not marked, values filed in µg/mL are converted to µM
Test [1] relates to Staphylococcus xylosus BCRC 12930.
Test [2] relates to Klebsiella aerogenes BCRC 10370.
The subject of test [3] is Staphylococcus aureus BCRC 10780.
In test [4] the test system is Staphylococcus aureus BCRC 10781.
In test [5] the test system is Klebsiella oxytoca BCRC 13985.
The test system of test [6] is Pseudomonas aeruginosa BCRC 10944.
In test [7] the test system is Streptococcus equinus BCRC 14729.
For test [8], the system named is Vibrio alginolyticus BCRC 12829.
The test system of test [9] is Vibrio parahaemolyticus BCRC 10806.
The subject of test [10] is Vibrio anguillarum serotype O1.
In test [11] the test system is Escherichia coli BCRC 10675.
Test [12] concerns Yersinia enterocolitica BCRC 13999.
Test [13] relates to Listeria monocytogenes BCRC 14845.
In test [14] the test system is Enterobacter cloacae BCRC 10401.
Test [15] concerns Streptococcus mutans UA159.
Test [16] relates to Streptococcus mitis ATCC 903.
The subject of test [17] is Streptococcus gordonii Challis DL1.
Test [18] has as its system Pseudomonas aeruginosa PAK.
The subject of test [19] is Streptococcus sanguinis NY101.

As a reminder, the MIC is the lowest concentration that inhibits growth of the organism. Read a low MIC as inhibition by little substance. With `CC[C@H](C)[C@H](NC(=O)[C@@H](NC(=O)[C@H](CCCCN)NC(=O)[C@H](Cc1ccc(O)cc1)NC(=O)[C@H](Cc1ccccc1)NC(=O)[C@H](CCCCN)NC(=O)[C@@H](NC(=O)[C@H](Cc1ccccc1)NC(=O)[C@H](C)NC(=O)[C@@H](NC(=O)[C@H](C)NC(=O)[C@H](C)NC(=O)[C@H](CCCCN)NC(=O)[C@@H](NC(=O)[C@H](CC(C)C)NC(=O)[C@H](C)NC(=O)[C@H](CCCCN)NC(=O)[C@H](C)NC(=O)CN)[C@@H](C)O)[C@@H](C)O)[C@@H](C)O)[C@@H](C)O)C(=O)N[C@@H](Cc1c[nH]c2ccccc12)C(=O)O` [GAKALTKAATAFTKFYKTIW], the MIC in [1] is 28.9 µM (≈ 64 µg/mL); in the test with Lactococcus garvieae, no less than 57.7 µM; in the test with Streptococcus iniae, no less than 57.7 µM; in [2], 7.21 µM (≈ 16 µg/mL); in test [3], no less than 57.7 µM; in test [4], no less than 57.7 µM. The MIC is 7.21 µM (≈ 16 µg/mL) in [5]; 14.4 µM (≈ 32 µg/mL) in the test with Vibrio parahaemolyticus; 28.9 µM (≈ 64 µg/mL) in test [6]; no less than 57.7 µM in test [7]; no less than 57.7 µM in test [8]; no less than 57.7 µM in test [9]. In addition, the MIC in test [10] was 28.9 µM (≈ 64 µg/mL); with Vibrio harveyi it was 28.9 µM (≈ 64 µg/mL); with Vibrio alginolyticus, 14.4 µM (≈ 32 µg/mL); in test [11] it was 7.21 µM (≈ 16 µg/mL); in test [12] it was no less than 57.7 µM; in [13] it was 28.9 µM (≈ 64 µg/mL). In test [14], the MIC came to 7.21 µM (≈ 16 µg/mL).
For `CC[C@H](C)[C@H](NC(=O)[C@H](Cc1ccccc1)NC(=O)CNC(=O)CNC(=O)[C@H](CO)NC(=O)[C@H](Cc1ccccc1)NC(=O)[C@H](Cc1c[nH]c2ccccc12)NC(=O)[C@H](CCCN=C(N)N)NC(=O)[C@H](Cc1c[nH]c2ccccc12)NC(=O)[C@H](CCCN=C(N)N)NC(=O)[C@H](Cc1c[nH]c2ccccc12)NC(=O)[C@@H](N)CCCN=C(N)N)C(=O)N[C@@H](CCCCN)C(=O)N[C@@H](Cc1cnc[nH]1)C(=O)N[C@@H](Cc1ccccc1)C(=O)N[C@H](C(=O)N[C@@H](Cc1cnc[nH]1)C(=O)N[C@@H](CCCN=C(N)N)C(=O)N[C@@H](Cc1ccccc1)C(N)=O)[C@@H](C)CC` [RWRWRWFSGGFIKHFIHRF], the MIC in test [15] was found to be 3.05 µM (≈ 8 µg/mL); with Staphylococcus aureus, 12.2 µM (≈ 32 µg/mL); in [16], 12.2 µM (≈ 32 µg/mL); in test [17], 12.2 µM (≈ 32 µg/mL); in test [18], 23.9 µM (≈ 62.5 µg/mL); in [19], 12.2 µM (≈ 32 µg/mL).
